{"source": "patent US3937657A", "about": "“Electrowinning of copper” (Anumin Pty. Limited, priority 1971, dated 1976)", "key": {"[1]": {"conditions": "acidified acetonitrile-water (10.8% ch3cn)", "method": "Solubilities of salts in acidified [2% v/v H2 SO4 ] acetonitrile-water mixtures at 25°C."}, "[2]": {"conditions": "2 molar sulphuric acid, 100°C; reported; cited from earlier work"}, "[3]": {"test": "Hydrolysis/decomposition of nitriles in acidified solutions", "format": "physicochemical"}, "[4]": {"test": "Solubilities of salts in acidified [2% v/v H2SO4] acetonitrile-water mixtures at 25°C (Table 3)", "conditions": "2% v/v H2SO4, water"}, "[5]": {"test": "Solubility of sulphur in refluxing acetonitrile-water-sulphuric acid", "format": "physicochemical", "conditions": "refluxing 50% acetonitrile, 45% water, 5% sulphuric acid", "protocol": "c. Sulphur dissolved in refluxing 50% acetonitrile, 45% water, 5% sulphuric acid to the extent of about 0.05 gms/100 ml."}, "[6]": {"test": "Oxidation of stirred cuprous sulphate solutions in acidified acetonitrile-water mixtures under oxygen (Table 2)", "format": "physicochemical", "conditions": "1.5% wt Cu^+, O2 1 atm", "excerpt": "Effect of Nitrile and Acid Concentration."}}, "note": "Read-outs that look alike come from different tables or passages of the source.", "data": [{"compound": "O.O.O.O.O.O.O.O.O.O=S(=O)([O-])[O-].O=S(=O)([O-])[O-].O=S(=O)([O-])[O-].[Fe+3].[Fe+3]", "note": "[Fe2 (SO4).9H2 O]", "values": [{"measurement": "Solubility (MX)", "setting": "[1]", "result": 325, "unit": "mg/mL"}]}, {"compound": "N#CCCO", "note": "[2-hydroxycyanoethane]", "values": [{"measurement": "rate of hydrolysis compared with acetonitrile", "setting": "[2]", "result": "comparable rate"}]}, {"compound": "CC#N", "note": "[Acetonitrile, acetonitrile]", "values": [{"measurement": "hydrolysed to acetic acid and ammonium acetate within", "setting": "[3]; 2 molar sulphuric acid, sealed tube, 100°C", "result": "≤ 24", "unit": "h"}, {"measurement": "loss of acetonitrile on heating", "setting": "[3]; acetonitrile, water, cuprous sulphate and 1N sulphuric acid, sealed tubes, 50°C, 2 months", "result": "had not lost detectable amounts"}]}, {"compound": "N#CCO", "note": "[cyanohydrin of formaldehyde]", "values": [{"measurement": "decomposition in the nitrile suitability tests", "setting": "[3]; water and suitable acids, cuprous salts", "result": "decomposed rapidly"}]}, {"compound": "O.O.O.O.O.O.O.O=S(=O)([O-])[O-].[Ni+2]", "note": "[NiSO4.7H2 O]", "values": [{"measurement": "Solubility (MX)", "setting": "[4]; 16.6% v/v CH3CN", "result": 231, "unit": "mg/mL"}]}, {"compound": "O=S(=O)([O-])[O-].[Cd+2]", "note": "[Cd SO4.8H2 O]", "values": [{"measurement": "Solubility (MX)", "setting": "[4]; 15% v/v CH3CN", "result": 492, "unit": "mg/mL"}]}, {"compound": "S1SSSSSSS1", "note": "[Sulphur, sulphur]", "values": [{"measurement": "Sulphur dissolved", "setting": "[5]", "result": "about 0.05 gms/100 ml"}]}, {"compound": "O=S(=O)([O-])[O-].[Cu+].[Cu+]", "note": "[Cu2 SO4, cuprous sulphate]", "values": [{"measurement": "Time for 30% of theoretical O2 uptake", "setting": "[6]; 10% vol CH3CN, 5% vol H2SO4, 25°C", "result": 95, "unit": "min"}, {"measurement": "Time for 30% of theoretical O2 uptake", "setting": "[6]; 30% vol CH3CN, 2.5% vol H2SO4, 25°C", "result": 330, "unit": "min"}, {"measurement": "Time for 30% of theoretical O2 uptake", "setting": "[6]; 30% vol CH3CN, 5% vol H2SO4, 25°C", "result": 300, "unit": "min"}, {"measurement": "Time for 30% of theoretical O2 uptake", "setting": "[6]; 30% vol CH3CN, 10% vol H2SO4, 25°C", "result": 375, "unit": "min"}, {"measurement": "Time for 30% of theoretical O2 uptake", "setting": "[6]; 50% vol CH3CN, 5% vol H2SO4, 25°C", "result": 340, "unit": "min"}]}]}
